Data from US9693556B2, “Herbicidal pyridazinone derivatives” (SYNGENTA LIMITED, priority 2011, dated 2017).

Key:
Format in all cases: in vivo
[1] = test system: Echinochloa crus-galli (ECHCG); assay: Post-emergence herbicidal glasshouse test on Echinochloa crus-galli; settings: post-emergence, 1000 g/h, evaluated after 13 days
Summary of the method: (§1)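 Scored on a five-point scale (1 = 0-19% to 5 = 80-100% damage) 13 days after treatment. Application rate 1000 g/h in acetone/water (50:50) containing 0.5% Tween 20, sprayed one day post-sowing for pre-emergence or eight days for post-emergence; glasshouse at 24/16° C, 14 h light, 65% humidity.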

[2] = test system: Ipomoea hederacea (IPOHE); assay: Post-emergence herbicidal glasshouse test on Ipomoea hederacea; settings: post-emergence, 1000 g/h, evaluated after 13 days
Summary of the method: as §1

Solanum nigrum (SOLNI) [3] = assay: Pre-emergence herbicidal glasshouse test on Solanum nigrum; settings: pre-emergence, 1000 g/h, evaluated after 13 days
Summary of the method: as §1

Solanum nigrum (SOLNI) [4] = assay: Post-emergence herbicidal glasshouse test on Solanum nigrum; settings: post-emergence, 1000 g/h, evaluated after 13 days
Summary of the method: as §1

Setaria faberi (SETFA) [5] = assay: Pre-emergence herbicidal glasshouse test on Setaria faberi; settings: pre-emergence, 1000 g/h, evaluated after 13 days
Summary of the method: as §1

Setaria faberi (SETFA) [6] = assay: Post-emergence herbicidal glasshouse test on Setaria faberi; settings: post-emergence, 1000 g/h, evaluated after 13 days
Summary of the method: as §1

[7] = test system: Amaranthus retoflexus (AMARE); assay: Pre-emergence herbicidal glasshouse test on Amaranthus retoflexus; settings: pre-emergence, 1000 g/h, evaluated after 13 days
Summary of the method: as §1

[8] = test system: Echinochloa crus-galli (ECHCG); assay: Pre-emergence herbicidal glasshouse test on Echinochloa crus-galli; settings: pre-emergence, 1000 g/h, evaluated after 13 days
Summary of the method: as §1

[9] = test system: Ipomoea hederacea (IPOHE); assay: Pre-emergence herbicidal glasshouse test on Ipomoea hederacea; settings: pre-emergence, 1000 g/h, evaluated after 13 days
Summary of the method: as §1

[10] = test system: Alopecurus myosuroides (ALOMY); assay: Pre-emergence herbicidal glasshouse test on Alopecurus myosuroides; settings: pre-emergence, 1000 g/h, evaluated after 13 days
Summary of the method: as §1

[11] = test system: Alopecurus myosuroides (ALOMY); assay: Post-emergence herbicidal glasshouse test on Alopecurus myosuroides; settings: post-emergence, 1000 g/h, evaluated after 13 days
Summary of the method: as §1

[12] = test system: Amaranthus retoflexus (AMARE); assay: Post-emergence herbicidal glasshouse test on Amaranthus retoflexus; settings: post-emergence, 1000 g/h, evaluated after 13 days
Summary of the method: as §1

SMILES	POST Application ECHCG herbicidal damage (five point scale) [1]	POST Application IPOHE herbicidal damage (five point scale) [2]	PRE Application SOLNI herbicidal damage (five point scale) (Solanum nigrum (SOLNI) [3])	POST Application SOLNI herbicidal damage (five point scale) (Solanum nigrum (SOLNI) [4])	PRE Application SETFA herbicidal damage (five point scale) (Setaria faberi (SETFA) [5])	POST Application SETFA herbicidal damage (five point scale) (Setaria faberi (SETFA) [6])	PRE Application AMARE herbicidal damage (five point scale) [7]	PRE Application ECHCG herbicidal damage (five point scale) [8]	PRE Application IPOHE herbicidal damage (five point scale) [9]	PRE Application ALOMY herbicidal damage (five point scale) [10]	POST Application ALOMY herbicidal damage (five point scale) [11]	POST Application AMARE herbicidal damage (five point scale) [12]	further results
COc1ccc(-n2cccc(-c3cnn(C)c(=O)c3O)c2=O)cc1 [Compound 9.016]	4 (4=60-79% damage)	2 (2=20-39% damage)	1 (1=0-19% damage)	5 (5=80-100% damage)	1 (1=0-19% damage)	3 (3=40-59% damage)	1 (1=0-19% damage)	1 (1=0-19% damage)	1 (1=0-19% damage)	2 (2=20-39% damage)	3 (3=40-59% damage)	5 (5=80-100% damage)	
Cn1ncc(-c2ccc(C(F)(F)F)cc2[N+](=O)[O-])c(O)c1=O [Compound 1.110]	3 (3=40-59% damage)	5 (5=80-100% damage)	1 (1=0-19% damage)	5 (5=80-100% damage)	1 (1=0-19% damage)	1 (1=0-19% damage)	5 (5=80-100% damage)	1 (1=0-19% damage)	1 (1=0-19% damage)	1 (1=0-19% damage)	1 (1=0-19% damage)	5 (5=80-100% damage)	
C#CCn1ncc(-c2ccc(S(C)(=O)=O)c(C3=NOCC3)c2C)c(O)c1=O [Compound 1.163]													herbicidal damage, POST Application ECHCG ([1]; five point scale): 5 (5=80-100% damage); herbicidal damage, POST Application IPOHE ([2]; five point scale): 5 (5=80-100% damage); herbicidal damage, PRE Application SOLNI (Solanum nigrum (SOLNI) [3]; five point scale): 5 (5=80-100% damage); herbicidal damage, POST Application SOLNI (Solanum nigrum (SOLNI) [4]; five point scale): 5 (5=80-100% damage); herbicidal damage, PRE Application SETFA (Setaria faberi (SETFA) [5]; five point scale): 5 (5=80-100% damage); herbicidal damage, POST Application SETFA (Setaria faberi (SETFA) [6]; five point scale): 5 (5=80-100% damage); herbicidal damage, PRE Application AMARE ([7]; five point scale): 5 (5=80-100% damage); herbicidal damage, PRE Application ECHCG ([8]; five point scale): 5 (5=80-100% damage); herbicidal damage, PRE Application IPOHE ([9]; five point scale): 4 (4=60-79% damage); herbicidal damage, PRE Application ALOMY ([10]; five point scale): 5 (5=80-100% damage); herbicidal damage, POST Application ALOMY ([11]; five point scale): 5 (5=80-100% damage); herbicidal damage, POST Application AMARE ([12]; five point scale): 5 (5=80-100% damage)
Cn1ncc(-c2ccc(S(C)(=O)=O)cc2S(C)(=O)=O)c(O)c1=O [Compound 1.119]	5 (5=80-100% damage)	5 (5=80-100% damage)	5 (5=80-100% damage)	5 (5=80-100% damage)	5 (5=80-100% damage)	5 (5=80-100% damage)	5 (5=80-100% damage)	5 (5=80-100% damage)	5 (5=80-100% damage)	5 (5=80-100% damage)	5 (5=80-100% damage)	5 (5=80-100% damage)	
Cn1ncc(-n2ccc(C(F)(F)F)c(-c3cccc(C#N)c3)c2=O)c(O)c1=O [Compound 7.019]	5 (5=80-100% damage)	2 (2=20-39% damage)	5 (5=80-100% damage)	5 (5=80-100% damage)	5 (5=80-100% damage)	5 (5=80-100% damage)	5 (5=80-100% damage)	5 (5=80-100% damage)	2 (2=20-39% damage)	5 (5=80-100% damage)	5 (5=80-100% damage)	5 (5=80-100% damage)	
CN(Cc1nc(C(F)(F)F)ccc1-c1cnn(C)c(=O)c1O)S(C)(=O)=O [Compound 1.040]	5 (5=80-100% damage)	5 (5=80-100% damage)	5 (5=80-100% damage)	5 (5=80-100% damage)	5 (5=80-100% damage)	5 (5=80-100% damage)	5 (5=80-100% damage)	5 (5=80-100% damage)	4 (4=60-79% damage)	5 (5=80-100% damage)	4 (4=60-79% damage)	5 (5=80-100% damage)	
Cn1ncc(-n2ccc(C(F)(F)F)c(-c3cccc(OC(F)(F)F)c3)c2=O)c(O)c1=O [Compound 7.005]	5 (5=80-100% damage)	4 (4=60-79% damage)	5 (5=80-100% damage)	5 (5=80-100% damage)	4 (4=60-79% damage)	4 (4=60-79% damage)	5 (5=80-100% damage)	5 (5=80-100% damage)	1 (1=0-19% damage)	4 (4=60-79% damage)	4 (4=60-79% damage)	5 (5=80-100% damage)	
COCn1ncc(-c2ccccc2[S+](C)[O-])c(O)c1=O (stereo not drawn) [Compound 1.145]	5 (5=80-100% damage)	5 (5=80-100% damage)	2 (2=20-39% damage)	5 (5=80-100% damage)	2 (2=20-39% damage)	5 (5=80-100% damage)	5 (5=80-100% damage)	4 (4=60-79% damage)	1 (1=0-19% damage)	1 (1=0-19% damage)	3 (3=40-59% damage)	5 (5=80-100% damage)	
Cc1ccccc1-c1c(C(F)(F)F)ccn(-c2cnn(C)c(=O)c2O)c1=O [Compound 1.053]	5 (5=80-100% damage)	5 (5=80-100% damage)	5 (5=80-100% damage)	5 (5=80-100% damage)	4 (4=60-79% damage)	4 (4=60-79% damage)	5 (5=80-100% damage)	5 (5=80-100% damage)	2 (2=20-39% damage)	5 (5=80-100% damage)	5 (5=80-100% damage)	5 (5=80-100% damage)	
